Earlier results on one compound are cited in patent US10543184B2, “Method to treat functional somatic syndromes with combination of aciclovir and celecoxib” (INNOVATIVE MED CONCEPTS, LLC, priority 2012, dated 2020).

Each structure is given as a SMILES string.

This series has as its system fibromyalgia patients. To be noted: Kendall et al., J. Rheumatology (2004) 31, 783-784.

`CC(C)[C@H](N)C(=O)OCCOCn1cnc2c(=O)[nH]c(N)nc21` [valacyclovir]: the “Outcome of treating fibromyalgia patients” value is listed as “not successful”.
